Several values for one entry are separate records, joined by “and”; a condition that tells them apart may be missing. Equal entries are not always repeated. Toxic doses and inconclusive results are not listed.
Tested on: BDF1 mice, P388 leukemia ip, median survival T/C
Assay: NCI In Vivo Anticancer Drug Screen. Data for tumor model P388 Leukemia (intraperitoneal) in B6D2F1 (BDF1) mice
Conditions: endpoint: median survival time, higher = longer survival
Method: The antitumor activity of compounds was measured in mice bearing transplantable tumors. Survival or tumor size were measured and the results are expressed as the measurement made in the treated group (T) divided by the measurement made in the vehicle treated control group (C). The tumor model used in this assay is P388 Leukemia (intraperitoneal) in B6D2F1 (BDF1) mice

[1] = dose: 100.0 mg/kg/injection, schedule: Q01DX009 (ip), vehicle: saline
[2] = dose: 100.0 mg/kg/injection, schedule: Q04DX003 (ip), vehicle: saline
[3] = dose: 200.0 mg/kg/injection, schedule: Q01DX009 (ip), vehicle: saline
[4] = dose: 200.0 mg/kg/injection, schedule: Q04DX003 (ip), vehicle: saline
[5] = dose: 400.0 mg/kg/injection, schedule: Q04DX003 (ip), vehicle: saline
[6] = dose: 100.0 mg/kg/injection, schedule: Q04DX003 (ip), vehicle: saline with Tween-80
[7] = dose: 200.0 mg/kg/injection, schedule: Q04DX003 (ip), vehicle: saline with Tween-80
[8] = dose: 400.0 mg/kg/injection, schedule: Q04DX003 (ip), vehicle: saline with Tween-80
[9] = dose: 266.0 mg/kg/injection, schedule: Q04DX003 (ip), vehicle: saline
[10] = dose: 100.0 mg/kg/injection, schedule: Q01DX009 (ip), vehicle: Klucel (hydroxypropylcellulose) (HPC)
[11] = dose: 200.0 mg/kg/injection, schedule: Q01DX009 (ip), vehicle: Klucel (hydroxypropylcellulose) (HPC)
[12] = dose: 400.0 mg/kg/injection, schedule: Q01DX009 (ip), vehicle: Klucel (hydroxypropylcellulose) (HPC)
[13] = dose: 100.0 mg/kg/injection, schedule: Q01DX009 (ip), vehicle: saline with Tween-80
[14] = dose: 400.0 mg/kg/injection, schedule: Q01DX009 (ip), vehicle: saline with Tween-80
[15] = dose: 200.0 mg/kg/injection, schedule: Q01DX009 (ip), vehicle: saline with Tween-80

In the case of `Cc1cc(N)on1`, the T/C [1] is reported as 100 % of control, the T/C [2] is reported as 109 % of control and the T/C [3] is reported as 96 % of control. For the same molecule, the T/C [4] was 109 % of control and the T/C [5] was 109 % of control.

For `CCCCCCc1ccccc1`, the T/C [6] was 109 % of control, the T/C [7] was 109 % of control and the T/C [8] was 118 % of control.

For `NN1CCCC1`, the T/C (dose: 25.0 mg/kg/injection, schedule: Q01DX009 (ip), vehicle: saline) was 100 % of control, the T/C (dose: 50.0 mg/kg/injection, schedule: Q01DX009 (ip), vehicle: saline) was 100 % of control and the T/C [1] was 86 % of control and 90 % of control and 100 % of control. For the same molecule, the T/C [2] was 104 % of control, the T/C [3] was 100 % of control and the T/C [4] was 113 % of control.

With `CCCCCCCCCCCCNC(=O)OCCN(CCOC(=O)NCCCCCCCCCCCC)C(=O)COc1ccc(Cl)cc1` the T/C (dose: 100.0 mg/kg/injection, schedule: Q04DX003 (ip), vehicle: other) was 100 % of control, the T/C (dose: 200.0 mg/kg/injection, schedule: Q04DX003 (ip), vehicle: other) was 100 % of control and the T/C (dose: 400.0 mg/kg/injection, schedule: Q04DX003 (ip), vehicle: other) was 100 % of control.

`CCCCCC[N+]1(C)CC2C3C=CC(C3)C2C1` (configuration not stated) was tested, and the T/C (dose: 75.0 mg/kg/injection, schedule: Q01DX009 (ip), vehicle: saline) was 90 % of control.

In the case of `C1CNC2NCCNC2N1` (configuration not stated), the T/C (dose: 66.0 mg/kg/injection, schedule: Q04DX003 (ip), vehicle: saline) is reported as 104 % of control, the T/C [2] is reported as 100 % of control and the T/C (dose: 117.0 mg/kg/injection, schedule: Q04DX003 (ip), vehicle: saline) is reported as 109 % of control. For the same molecule, the T/C (dose: 132.0 mg/kg/injection, schedule: Q01DX009 (ip), vehicle: saline) was 156 % of control, the T/C (dose: 150.0 mg/kg/injection, schedule: Q04DX003 (ip), vehicle: saline) was 100 % of control and the T/C (dose: 178.0 mg/kg/injection, schedule: Q04DX003 (ip), vehicle: saline) was 154 % of control. The T/C [4] was 120 % of control, the T/C [9] was 122 % of control and the T/C (dose: 300.0 mg/kg/injection, schedule: Q01DX009 (ip), vehicle: saline) was 150 % of control. The T/C (dose: 400.0 mg/kg/injection, schedule: Q01DX009 (ip), vehicle: saline) was 150 % of control and the T/C [5] was 172 % of control.

For `IC1CCCOC1[n+]1ccccc1` (configuration not stated), the T/C (dose: 6.0 mg/kg/injection, schedule: Q01DX009 (ip), vehicle: saline with Tween-80) was 104 % of control, the T/C (dose: 12.0 mg/kg/injection, schedule: Q01DX009 (ip), vehicle: saline with Tween-80) was 109 % of control and the T/C (dose: 12.5 mg/kg/injection, schedule: Q04DX003 (ip), vehicle: saline with Tween-80) was 96 % of control. The T/C (dose: 25.0 mg/kg/injection, schedule: Q01DX009 (ip), vehicle: saline with Tween-80) was 104 % of control and the T/C (dose: 25.0 mg/kg/injection, schedule: Q04DX003 (ip), vehicle: saline with Tween-80) was 107 % of control.

`CN(C)c1ccc(/C=C/c2ccnc3ccccc23)c(O)c1` was tested, and the T/C [6] was 113 % of control.

`CC(=O)OCC1OC(n2cc(C(F)(F)F)c(=O)[nH]c2=O)CC1OC(C)=O` (configuration not stated) was tested, and the T/C (dose: 62.5 mg/kg/injection, schedule: Q01DX009 (ip), vehicle: Klucel (hydroxypropylcellulose) (HPC)) was 95 % of control, the T/C [10] was 100 % of control and the T/C (dose: 125.0 mg/kg/injection, schedule: Q01DX009 (ip), vehicle: Klucel (hydroxypropylcellulose) (HPC)) was 109 % of control. The T/C [11] was 100 % of control, the T/C (dose: 250.0 mg/kg/injection, schedule: Q01DX009 (ip), vehicle: Klucel (hydroxypropylcellulose) (HPC)) was 90 % of control and the T/C [12] was 105 % of control. The T/C (dose: 500.0 mg/kg/injection, schedule: Q01DX009 (ip), vehicle: Klucel (hydroxypropylcellulose) (HPC)) was 109 % of control.

For `C[n+]1c2ccccc2nc2c(N)cc(N)cc21`, the T/C (dose: 4.8 mg/kg/injection, schedule: Q01DX009 (ip), vehicle: saline with Tween-80) was 115 % of control, the T/C (dose: 7.3 mg/kg/injection, schedule: Q01DX009 (ip), vehicle: saline with Tween-80) was 115 % of control and the T/C (dose: 26.0 mg/kg/injection, schedule: Q01DX009 (ip), vehicle: saline with Tween-80) was 154 % of control. For the same molecule, the T/C (dose: 41.0 mg/kg/injection, schedule: Q01DX009 (ip), vehicle: saline with Tween-80) was 154 % of control and the T/C (dose: 41.0 mg/kg/injection, schedule: Q01DX009 (ip), vehicle: water) was 185 % of control.

`COc1ccc2c(Cl)cc(NC(=O)Nc3c(C)cccc3C)nc2c1` was tested, and the T/C [13] was 88 % of control.

`C[C@]12CC[C@@H]3c4ccc(OC(=O)Cc5ccc(N(CCCl)CCCl)cc5)cc4CC[C@H]3[C@@H]1CC[C@@H]2OC(=O)Cc1ccc(N(CCCl)CCCl)cc1` was tested, and the T/C (dose: 64.0 mg/kg/injection, schedule: Q01DX009 (ip), vehicle: Klucel (hydroxypropylcellulose) (HPC)) was 95 % of control and 105 % of control, the T/C [13] was 118 % of control and the T/C (dose: 128.0 mg/kg/injection, schedule: Q01DX009 (ip), vehicle: Klucel (hydroxypropylcellulose) (HPC)) was 98 % of control and 123 % of control. The T/C (dose: 256.0 mg/kg/injection, schedule: Q01DX009 (ip), vehicle: Klucel (hydroxypropylcellulose) (HPC)) was 111 % of control, the T/C (dose: 264.0 mg/kg/injection, schedule: Q04DX003 (ip), vehicle: saline with Tween-80) was 108 % of control and the T/C [14] was 200 % of control. For the same molecule, the T/C [8] was 112 % of control and the T/C (dose: 512.0 mg/kg/injection, schedule: Q01DX009 (ip), vehicle: Klucel (hydroxypropylcellulose) (HPC)) was 195 % of control.

In the case of `Oc1c(O)c(Cl)c(Cl)c(Cl)c1Cl`, the T/C (dose: 12.5 mg/kg/injection, schedule: Q01DX009 (ip), vehicle: saline sonified) is reported as 95 % of control, the T/C (dose: 12.5 mg/kg/injection, schedule: Q04DX003 (ip), vehicle: saline sonified) is reported as 100 % of control and the T/C (dose: 25.0 mg/kg/injection, schedule: Q01DX009 (ip), vehicle: saline sonified) is reported as 108 % of control. The T/C (dose: 25.0 mg/kg/injection, schedule: Q04DX003 (ip), vehicle: saline sonified) was 100 % of control, the T/C (dose: 50.0 mg/kg/injection, schedule: Q01DX009 (ip), vehicle: saline sonified) was 116 % of control and the T/C (dose: 50.0 mg/kg/injection, schedule: Q04DX003 (ip), vehicle: saline sonified) was 100 % of control.

With `CC(=O)OCC1OC(n2ccc(N)nc2=O)C(OC(C)=O)C1OC(C)=O` (configuration not stated) the T/C (dose: 50.0 mg/kg/injection, schedule: Q01DX009 (ip), vehicle: saline with Tween-80) was 170 % of control, the T/C [13] was 188 % of control and the T/C (dose: 177.0 mg/kg/injection, schedule: Q04DX003 (ip), vehicle: saline) was 177 % of control. The T/C [15] was 106 % of control, the T/C [9] was 181 % of control and 195 % of control and the T/C [5] was 187 % of control and 204 % of control. For the same molecule, the T/C (dose: 600.0 mg/kg/injection, schedule: Q04DX003 (ip), vehicle: saline) was 263 % of control and 200 % of control.

In the case of `CCCCC(=O)c1ccc(F)cc1`, the T/C [10] is reported as 95 % of control, the T/C (dose: 100.0 mg/kg/injection, schedule: Q04DX003 (ip), vehicle: Klucel (hydroxypropylcellulose) (HPC)) is reported as 91 % of control and the T/C [11] is reported as 104 % of control. The T/C (dose: 200.0 mg/kg/injection, schedule: Q04DX003 (ip), vehicle: Klucel (hydroxypropylcellulose) (HPC)) was 104 % of control, the T/C [12] was 109 % of control and the T/C (dose: 400.0 mg/kg/injection, schedule: Q04DX003 (ip), vehicle: Klucel (hydroxypropylcellulose) (HPC)) was 91 % of control.

With `N/C(=N/O)c1[nH]cnc1N` the T/C (dose: 12.5 mg/kg/injection, schedule: Q01DX009 (ip), vehicle: water) was 101 % of control, the T/C (dose: 25.0 mg/kg/injection, schedule: Q01DX009 (ip), vehicle: water) was 97 % of control and the T/C (dose: 50.0 mg/kg/injection, schedule: Q01DX009 (ip), vehicle: water) was 103 % of control. For the same molecule, the T/C (dose: 100.0 mg/kg/injection, schedule: Q01DX009 (ip), vehicle: water) was 103 % of control.

`CC(=O)Nc1c2sscc-2n(C)c1=O` was tested, and the T/C (dose: 0.39 mg/kg/injection, schedule: Q01DX009 (ip), vehicle: saline with Tween-80) was 97 % of control and the T/C (dose: 0.78 mg/kg/injection, schedule: Q01DX009 (ip), vehicle: saline with Tween-80) was 104 % of control.

For `Nc1c(C(=O)O)cccc1C(=O)O`, the T/C [13] was 104 % of control, the T/C [6] was 100 % of control and the T/C [15] was 109 % of control. The T/C [7] was 100 % of control, the T/C [14] was 113 % of control and the T/C [8] was 95 % of control.
